Values of other authors as cited in paper PMC7142633, “Impact of B-Ring Substitution and Acylation with Hydroxy Cinnamic Acids on the Inhibition of Porcine α-Amylase by Anthocyanin-3-Glycosides” (Foods, 2020).

Target: porcine pancreatic α-amylase
Set-up: method as in doi:10.1016/j.jff.2015.11.042
Conditions: cited from earlier work

In the case of `COc1cc(-c2[o+]c3cc(O)cc(O)c3cc2O[C@@H]2O[C@H](CO)[C@@H](O)[C@H](O)[C@H]2O)ccc1O` [Peo-glc, peonidin-3-glucoside], the IC50 is listed as 75 ± 7 µM and the inhibition type is listed as “competitive inhibition type”.
